Experimental data: the supplement of paper PMC10307832

How the values were obtained:
Assay in all cases: relative viability (nuclei count vs DMSO), 5 days (fraction); higher = more cells survive
SGI-1776 + Foretinib = compound: CN1CCC(CNc2ccc3ncc(-c4cccc(OC(F)(F)F)c4)n3n2)CC1 [SGI-1776] + COc1cc2c(Oc3ccc(NC(=O)C4(C(=O)Nc5ccc(F)cc5)CC4)cc3F)ccnc2cc1OCCCN1CCOCC1 [Foretinib] (partner 0.25 µM)
In short: (§1)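 Relative viability equals treated-well nuclei counts divided by vehicle-well nuclei counts. Counts came from 4× images of lung cancer cell lines grown in 1536-well plates for 5 days after pin-tool dosing on the day after seeding. Dosing used one drug alone or a fixed anchor-drug dose plus five library-drug doses (not always all listed) in √10 steps, and values are medians of duplicate plates.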

SGI-1776 + Pemetrexed = compound: CN1CCC(CNc2ccc3ncc(-c4cccc(OC(F)(F)F)c4)n3n2)CC1 [SGI-1776] + Nc1nc2[nH]cc(CCc3ccc(C(=O)N[C@@H](CCC(=O)O)C(=O)O)cc3)c2c(=O)[nH]1 [Pemetrexed] (partner 0.2 µM)
In short: as §1

Entinostat + Dasatinib = compound: Nc1ccccc1NC(=O)c1ccc(CNC(=O)OCc2cccnc2)cc1 [Entinostat] + Cc1nc(Nc2ncc(C(=O)Nc3c(C)cccc3Cl)s2)cc(N2CCN(CCO)CC2)n1 [Dasatinib] (partner 0.075 µM)
In short: as §1

Entinostat + Pemetrexed = compound: Nc1ccccc1NC(=O)c1ccc(CNC(=O)OCc2cccnc2)cc1 [Entinostat] + Nc1nc2[nH]cc(CCc3ccc(C(=O)N[C@@H](CCC(=O)O)C(=O)O)cc3)c2c(=O)[nH]1 [Pemetrexed] (partner 0.2 µM)
In short: as §1

Cell Line | relative viability (SGI-1776 + Foretinib; first compound 0.08 µM) | relative viability (SGI-1776 + Foretinib; first compound 0.8 µM) | relative viability (SGI-1776 + Foretinib; first compound 2.53 µM) | relative viability (SGI-1776 + Foretinib; first compound 8 µM) | relative viability (SGI-1776 + Pemetrexed; first compound 0.08 µM) | relative viability (SGI-1776 + Pemetrexed; first compound 0.8 µM) | relative viability (SGI-1776 + Pemetrexed; first compound 2.53 µM) | relative viability (SGI-1776 + Pemetrexed; first compound 8 µM) | relative viability (Entinostat + Dasatinib; first compound 0.02 µM) | relative viability (Entinostat + Dasatinib; first compound 0.06325 µM) | relative viability (Entinostat + Dasatinib; first compound 0.2 µM) | relative viability (Entinostat + Dasatinib; first compound 0.6325 µM) | relative viability (Entinostat + Dasatinib; first compound 2 µM) | relative viability (Entinostat + Pemetrexed; first compound 0.02 µM) | relative viability (Entinostat + Pemetrexed; first compound 0.06325 µM) | relative viability (Entinostat + Pemetrexed; first compound 0.2 µM) | relative viability (Entinostat + Pemetrexed; first compound 0.6325 µM) | relative viability (Entinostat + Pemetrexed; first compound 2 µM)
EMC-BAC-2 | 1.02 | 0.99 | 1.11 | 0.846 | 0.438 | 0.452 | 0.458 | 0.425 | 0.349 | 0.318 | 0.298 | 0.177 | 0.109 | 0.434 | 0.432 | 0.416 | 0.361 | 0.341
EPLC-272H | 0.82 | 0.66 | 0.768 | 0.528 | 0.423 | 0.362 | 0.351 | 0.246 | 0.364 | 0.417 | 0.289 | 0.195 | 0.2 | 0.391 | 0.322 | 0.304 | 0.244 | 0.248
H3255 | 1.02 | 0.994 | 0.801 | 0.864 | 0.602 | 0.609 | 0.649 | 0.471 | 0.397 | 0.37 | 0.27 | 0.32 | 0.265 | 0.586 | 0.57 | 0.549 | 0.414 | 0.378
HARA | 1.04 | 0.946 | 0.718 | 0.913 | 0.191 | 0.231 | 0.259 | 0.259 | 0.299 | 0.256 | 0.256 | 0.273 | 0.168 | 0.233 | 0.22 | 0.31 | 0.257 | 0.247
HCC-15 | 0.989 | 1.07 | 1.04 | 0.824 | 0.229 | 0.226 | 0.223 | 0.197 | 0.664 | 0.749 | 0.595 | 0.33 | 0.178 | 0.237 | 0.215 | 0.237 | 0.197 | 0.159
HCC-44 | – | – | – | – | 0.612 | 0.621 | 0.679 | 0.633 | – | – | – | – | – | 0.63 | 0.604 | 0.631 | 0.562 | 0.564
HCC-78 | 0.553 | 0.566 | 0.595 | 0.606 | 0.894 | 0.875 | 0.908 | 0.939 | 0.432 | 0.39 | 0.316 | 0.277 | 0.291 | 0.922 | 0.873 | 0.946 | 0.871 | 0.908
HCC-366 | 0.907 | 0.963 | 0.961 | 0.392 | 0.184 | 0.17 | 0.172 | 0.164 | 0.679 | 0.663 | 0.527 | 0.512 | 0.196 | 0.185 | 0.141 | 0.159 | 0.0978 | 0.0735
HCC-827 | 1.04 | 1.13 | 1.09 | 0.647 | 0.393 | 0.268 | 0.24 | 0.226 | 0.255 | 0.269 | 0.23 | 0.227 | 0.294 | 0.268 | 0.265 | 0.227 | 0.229 | 0.187
